Data: PMC4914113, “Another look at the mechanism involving trimeric dUTPases in Staphylococcus aureus pathogenicity island induction involves novel players in the party” (Nucleic Acids Research, 2016)

Columns and labels:
[1] = target: T1, Dut80α (Dubowvirus dv80alpha, UniProt A4ZF98); assay: X-ray crystallography; format: binding; settings: 2.33 Å; no nucleotide added to crystallisation; active site
T1 construct: His6-tagged from pET-28a, E. coli BL21(DE3); homotrimer; models cover residues 2-168 (dUMP) and 2-170 (G164S)

[2] = target: T2, Dutϕ11 (Staphylococcus phage phi 11, UniProt Q8SDV3); assay: biolayer interferometry, effect on Stl binding; settings: 0.5 mM dUPNPP; SaPIbov1 Stl analyte; pH 7.5, 5 mM MgCl2; competes with Stl
T2 construct: His6-tagged from pET-28a, E. coli BL21(DE3); trimeric Dut

[3] = target: T1, Dut80α; assay: biolayer interferometry, effect on Stl binding; settings: 0.5 mM dUPNPP; SaPIbov1 Stl analyte; pH 7.5, 5 mM MgCl2; competes with Stl
[4] = target: Dut80α^G164S (Staphylococcus aureus phage 80α); assay: crystal structure; Dut80α^WT with dUMP (5CCO) and Dut80α^G164S with dUPNPP-Mg (5CCT); space group P2_(1)3, one Dut molecule in the final model; trimers shown in Figure 3
[5] = target: Dut80α^WT, wild-type dUTPase of phage 80α (Staphylococcus aureus phage 80α); assay: as above

For `O=c1ccn([C@H]2C[C@H](O)[C@@H](COP(=O)(O)O)O2)c(=O)[nH]1` [dUMP], which X-ray crystallography [1] is on record?
The X-ray crystallography was “structure of the Dut80α^WT bound to the dUMP showed that motif V was ordered”.

How did the “biolayer interferometry, effect on Stl binding” value [2] turn out when `O=c1ccn([C@H]2C[C@H](O)[C@@H](COP(=O)(O)NP(=O)(O)OP(=O)(O)O)O2)c(=O)[nH]1` [dUPNPP, 2-Deoxyuridine-5-[(α,β)-imido]triphosphate] was run?
Its value is “dUPNPP decreased the affinity of the Stl:Dut80α complex by about one order”.

What about the “biolayer interferometry, effect on Stl binding” value [3] of the same compound?
Its value is “presence of the dUPNPP severely affects the formation of the Stl:Dut80α complex”.

Which stoichiometry N [4] does the source give for Dut80α^G164S (enzyme) here?
Its stoichiometry N is 3.

How did the stoichiometry N [5] turn out when “Dut80α^WT, wild-type dUTPase of phage 80α (enzyme)” was run?
Its stoichiometry N is 3.
